Row | Structure (SMILES) | melting point
1 | COc1ccc(C)c(NC(=O)CC2C3CC4CC(C3)CC2C4)c1 (centres unmarked) [Example 1, 2-(2-Adamantyl)-N-(5-methoxy-2-methylphenyl)acetamide] | 193 to 196 °C
2 | O=C(CC1C2CC3CC(C2)CC1C3)Nc1cccc2[nH]ccc12 (centres unmarked) [Example 2, 2-(2-Adamantyl)-N-1H-indol-4-ylacetamide] | 206 to 208 °C
